Data from ChEMBL document CHEMBL3400001, “Tricyclic 1,5-naphthyridinone oxabicyclooctane-linked novel bacterial topoisomerase inhibitors as broad-spectrum antibacterial agents-SAR of left-hand-side moiety (Part-2)” (Bioorg Med Chem Lett, 2015).
pIC50: −log10 of the molar value. In brackets after ≈: the same amount, converted by molar mass.

Tested on: not listed separately
Assay: Volume of distribution at steady state in C57BL/6 mouse at 1 mg/kg, iv or 2 mg/kg, po
Assay type: ADME, organism-based
Conditions: in vivo, read-out: Vdss

Row | SMILES | Vd [L/kg]
1 | O=C1COc2ccc(CNC34CCC(C[C@]5(O)Cn6c(=O)ccc7ncc(F)c5c76)(CC3)OC4)nc2N1 | 11.8

Target: T1, Voltage-gated inwardly rectifying potassium channel KCNH2 (Homo sapiens, UniProt Q12809)
Assay: Inhibition of human ERG by MK499 binding assay
Conditions: not given

T1 sequence (Q12809 whole entry): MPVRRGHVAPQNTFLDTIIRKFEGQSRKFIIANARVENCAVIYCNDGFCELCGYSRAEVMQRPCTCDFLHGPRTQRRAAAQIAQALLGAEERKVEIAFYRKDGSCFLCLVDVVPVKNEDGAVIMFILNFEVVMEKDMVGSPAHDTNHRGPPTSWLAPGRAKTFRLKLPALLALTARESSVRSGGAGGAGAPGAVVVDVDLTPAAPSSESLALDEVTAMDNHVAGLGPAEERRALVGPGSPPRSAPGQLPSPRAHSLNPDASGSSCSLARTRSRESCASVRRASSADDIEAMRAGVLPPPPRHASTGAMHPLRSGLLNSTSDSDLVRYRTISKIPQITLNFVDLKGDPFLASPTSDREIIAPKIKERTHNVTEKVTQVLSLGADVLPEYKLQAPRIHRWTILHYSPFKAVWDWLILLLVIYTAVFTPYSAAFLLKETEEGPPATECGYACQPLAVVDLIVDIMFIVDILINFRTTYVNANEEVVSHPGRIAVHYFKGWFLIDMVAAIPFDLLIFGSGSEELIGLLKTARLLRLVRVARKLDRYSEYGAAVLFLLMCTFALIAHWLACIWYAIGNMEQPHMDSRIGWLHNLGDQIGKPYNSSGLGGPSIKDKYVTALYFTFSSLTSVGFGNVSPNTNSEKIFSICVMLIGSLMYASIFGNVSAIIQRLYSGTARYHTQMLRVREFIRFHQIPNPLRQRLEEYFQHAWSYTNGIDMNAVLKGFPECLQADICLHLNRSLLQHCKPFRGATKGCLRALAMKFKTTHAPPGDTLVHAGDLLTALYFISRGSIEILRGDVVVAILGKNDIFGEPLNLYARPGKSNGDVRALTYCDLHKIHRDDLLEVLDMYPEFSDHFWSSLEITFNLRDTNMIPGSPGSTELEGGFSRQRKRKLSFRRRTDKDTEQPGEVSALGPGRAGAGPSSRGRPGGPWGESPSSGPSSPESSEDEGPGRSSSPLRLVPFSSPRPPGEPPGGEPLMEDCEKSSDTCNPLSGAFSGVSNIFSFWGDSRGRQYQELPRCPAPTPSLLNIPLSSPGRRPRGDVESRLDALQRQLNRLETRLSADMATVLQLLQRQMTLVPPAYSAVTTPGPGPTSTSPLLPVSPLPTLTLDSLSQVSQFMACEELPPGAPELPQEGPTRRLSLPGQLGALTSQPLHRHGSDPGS

Row | SMILES | pIC50
2 | CO[C@@]1(CC23CCC(NCc4ccc5c(n4)NC(=O)CO5)(CC2)CO3)Cn2c(=O)ccc3ncc(F)c1c32 | 5.14
3 | O=C1COc2ccc(CNC34CCC(C[C@@]5(O)Cn6c(=O)ccc7ncc(Cl)c5c76)(CC3)OC4)nc2N1 | < 4.22
4 | O=C1COc2ccc(CNC34CCC(CC5Cn6c(=O)ccc7ncc(F)c5c76)(CC3)OC4)nc2N1 (stereo in doubt; 9) | 4.82
5 | O=C1COc2ccc(CNC34CCC(CC5Cn6c(=O)ccc7ncc(F)c5c76)(CC3)OC4)nc2N1 (racemic) | 4.64

Tested on: Staphylococcus aureus
Assay: Ratio of MIC for quinolone-resistant Staphylococcus aureus MS5935 to MIC for quinolone-[…]
Assay type: functional
Conditions: not given

Row | SMILES | Ratio
6 | CO[C@@]1(CC23CCC(NCc4ccc5c(n4)NC(=O)CO5)(CC2)CO3)Cn2c(=O)ccc3ncc(F)c1c32 | <4
7 | O=C1COc2ccc(CNC34CCC(C[C@@]5(O)Cn6c(=O)ccc7ncc(Cl)c5c76)(CC3)OC4)nc2N1 | <4
8 | O=C1COc2ccc(CNC34CCC(CC5Cn6c(=O)ccc7ncc(F)c5c76)(CC3)OC4)nc2N1 (stereo in doubt; 9) | <4

Tested on: not listed separately
Assay: Oral bioavailability in C57BL/6 mouse at 2 mg/kg
Assay type: ADME, organism-based
Conditions: in vivo

Row | SMILES | bioavailability [%]
9 | O=C1COc2ccc(CNC34CCC(C[C@]5(O)Cn6c(=O)ccc7ncc(F)c5c76)(CC3)OC4)nc2N1 | 40

Tested on: Streptococcus pneumoniae
Assay: Antimicrobial activity against Streptococcus pneumoniae IID554 by micro broth dilution or agar based method
Assay type: functional
Conditions: not given

Row | SMILES | MIC [µg/mL]
10 | O=C1COc2ccc(CNC34CCC(CC5Cn6c(=O)ccc7ncc(F)c5c76)(CC3)OC4)nc2N1 (stereo in doubt; 9) | 0.25 (≈ 0.509 µM)

Same assay, conditions: Streptococcus pneumoniae, IID554; read-out: MIC

Row | SMILES | MIC [µg/mL]
11 | CO[C@@]1(CC23CCC(NCc4ccc5c(n4)NC(=O)CO5)(CC2)CO3)Cn2c(=O)ccc3ncc(F)c1c32 | 2 (≈ 3.83 µM)
12 | O=C1COc2ccc(CNC34CCC(C[C@@]5(O)Cn6c(=O)ccc7ncc(Cl)c5c76)(CC3)OC4)nc2N1 | 4 (≈ 7.63 µM)
13 | O=C1COc2ccc(CNC34CCC(CC5Cn6c(=O)ccc7ncc(F)c5c76)(CC3)OC4)nc2N1 (racemic) | 0.25 (≈ 0.509 µM)
14 | O=C1COc2ccc(CNC34CCC(C[C@]5(O)Cn6c(=O)ccc7ncc(F)c5c76)(CC3)OC4)nc2N1 | 0.25 (≈ 0.493 µM)

Tested on: Staphylococcus aureus
Assay: Antimicrobial activity against Staphylococcus aureus Smith by micro broth dilution or agar based method
Assay type: functional
Conditions: not given

Row | SMILES | MIC [µg/mL]
15 | O=C1COc2ccc(CNC34CCC(CC5Cn6c(=O)ccc7ncc(F)c5c76)(CC3)OC4)nc2N1 (racemic) | 0.12 (≈ 0.244 µM)

Same assay, conditions: Staphylococcus aureus, Smith; read-out: MIC

Row | SMILES | MIC [µg/mL]
16 | CO[C@@]1(CC23CCC(NCc4ccc5c(n4)NC(=O)CO5)(CC2)CO3)Cn2c(=O)ccc3ncc(F)c1c32 | 4 (≈ 7.67 µM)
17 | O=C1COc2ccc(CNC34CCC(C[C@@]5(O)Cn6c(=O)ccc7ncc(Cl)c5c76)(CC3)OC4)nc2N1 | 4 (≈ 7.63 µM)
18 | O=C1COc2ccc(CNC34CCC(C[C@]5(O)Cn6c(=O)ccc7ncc(F)c5c76)(CC3)OC4)nc2N1 | 0.25 (≈ 0.493 µM)

Tested on: Staphylococcus aureus
Assay: Antimicrobial activity against Staphylococcus aureus infected in intravenously dosed mouse model of bacteremia
Assay type: functional
Conditions: iv

Row | SMILES | ED50 [mg/kg]
19 | O=C1COc2ccc(CNC34CCC(C[C@]5(O)Cn6c(=O)ccc7ncc(F)c5c76)(CC3)OC4)nc2N1 | < 3.2

Tested on: Haemophilus influenzae
Assay: Antimicrobial activity against Haemophilus influenzae ATCC 49247 by micro broth dilution or agar based method
Assay type: functional
Conditions: not given

Row | SMILES | MIC [µg/mL]
20 | O=C1COc2ccc(CNC34CCC(C[C@]5(O)Cn6c(=O)ccc7ncc(F)c5c76)(CC3)OC4)nc2N1 | 1 (≈ 1.97 µM)

Tested on: not listed separately
Assay: AUC in C57BL/6 mouse at 1 mg/kg, iv
Assay type: ADME, organism-based
Set-up: dose 1 mg/kg, route intravenous
Conditions: plasma

Row | SMILES | AUC [µM·h]
21 | O=C1COc2ccc(CNC34CCC(C[C@]5(O)Cn6c(=O)ccc7ncc(F)c5c76)(CC3)OC4)nc2N1 | 0.45

Tested on: Staphylococcus aureus
Assay: Antimicrobial activity against Staphylococcus aureus infected in orally dosed mouse model of bacteremia
Assay type: functional
Conditions: po

Row | SMILES | ED50 [mg/kg]
22 | O=C1COc2ccc(CNC34CCC(C[C@]5(O)Cn6c(=O)ccc7ncc(F)c5c76)(CC3)OC4)nc2N1 | 27

Tested on: Enterococcus faecium
Assay: Antimicrobial activity against vancomycin-resistant Enterococcus faecium A2373 expressing VanA by micro broth dilution or agar based method
Assay type: functional
Conditions: not given

Row | SMILES | MIC [µg/mL]
23 | O=C1COc2ccc(CNC34CCC(CC5Cn6c(=O)ccc7ncc(F)c5c76)(CC3)OC4)nc2N1 (stereo in doubt; 9) | 1 (≈ 2.03 µM)

Same assay, conditions: Enterococcus faecium, A2373; read-out: MIC

Row | SMILES | MIC [µg/mL]
24 | CO[C@@]1(CC23CCC(NCc4ccc5c(n4)NC(=O)CO5)(CC2)CO3)Cn2c(=O)ccc3ncc(F)c1c32 | 32 (≈ 61.4 µM)
25 | O=C1COc2ccc(CNC34CCC(C[C@@]5(O)Cn6c(=O)ccc7ncc(Cl)c5c76)(CC3)OC4)nc2N1 | 32 (≈ 61.1 µM)
26 | O=C1COc2ccc(CNC34CCC(C[C@]5(O)Cn6c(=O)ccc7ncc(F)c5c76)(CC3)OC4)nc2N1 | 8 (≈ 15.8 µM)

Target: T1, Voltage-gated inwardly rectifying potassium channel KCNH2
Assay: Inhibition of human ERG expressed in CHO cells by Patch express assay
Assay type: cell-based
Conditions: not given

Row | SMILES | pIC50
27 | O=C1COc2ccc(CNC34CCC(CC5Cn6c(=O)ccc7ncc(F)c5c76)(CC3)OC4)nc2N1 (stereo in doubt; 9) | 4.80
28 | O=C1COc2ccc(CNC34CCC(CC5Cn6c(=O)ccc7ncc(F)c5c76)(CC3)OC4)nc2N1 (racemic) | 4.52

Tested on: not listed separately
Assay: Half life in C57BL/6 mouse at 1 mg/kg, iv or 2 mg/kg, po
Assay type: ADME, organism-based
Conditions: in vivo

Row | SMILES | half-life [h]
29 | O=C1COc2ccc(CNC34CCC(C[C@]5(O)Cn6c(=O)ccc7ncc(F)c5c76)(CC3)OC4)nc2N1 | 4

Tested on: Enterococcus faecalis
Assay: Antimicrobial activity against Enterococcus faecalis ATCC 29212 MB by micro broth dilution or agar based method
Assay type: functional
Conditions: not given

Row | SMILES | MIC [µg/mL]
30 | O=C1COc2ccc(CNC34CCC(CC5Cn6c(=O)ccc7ncc(F)c5c76)(CC3)OC4)nc2N1 (stereo in doubt; 9) | 0.5 (≈ 1.02 µM)

Same assay, conditions: Enterococcus faecalis, ATCC 29212 MB; read-out: MIC

Row | SMILES | MIC [µg/mL]
31 | CO[C@@]1(CC23CCC(NCc4ccc5c(n4)NC(=O)CO5)(CC2)CO3)Cn2c(=O)ccc3ncc(F)c1c32 | 8 (≈ 15.3 µM)
32 | O=C1COc2ccc(CNC34CCC(C[C@@]5(O)Cn6c(=O)ccc7ncc(Cl)c5c76)(CC3)OC4)nc2N1 | 16 (≈ 30.5 µM)
33 | O=C1COc2ccc(CNC34CCC(C[C@]5(O)Cn6c(=O)ccc7ncc(F)c5c76)(CC3)OC4)nc2N1 | 4 (≈ 7.88 µM)

Tested on: not listed separately
Assay: Plasma clearance in C57BL/6 mouse at 1 mg/kg, iv or 2 mg/kg, po
Assay type: ADME, organism-based
Conditions: not given

Row | SMILES | clearance [mL/min/kg]
34 | O=C1COc2ccc(CNC34CCC(C[C@]5(O)Cn6c(=O)ccc7ncc(F)c5c76)(CC3)OC4)nc2N1 | 65

Tested on: Pseudomonas aeruginosa
Assay: Antimicrobial activity against Pseudomonas aeruginosa PAO1 by micro broth dilution or agar based method
Assay type: functional
Conditions: not given

Row | SMILES | MIC [µg/mL]
35 | O=C1COc2ccc(CNC34CCC(CC5Cn6c(=O)ccc7ncc(F)c5c76)(CC3)OC4)nc2N1 (racemic) | 8 (≈ 16.3 µM)

Same assay, conditions: Pseudomonas aeruginosa, PAO1; read-out: MIC

Row | SMILES | MIC [µg/mL]
36 | CO[C@@]1(CC23CCC(NCc4ccc5c(n4)NC(=O)CO5)(CC2)CO3)Cn2c(=O)ccc3ncc(F)c1c32 | 32 (≈ 61.4 µM)
37 | O=C1COc2ccc(CNC34CCC(C[C@@]5(O)Cn6c(=O)ccc7ncc(Cl)c5c76)(CC3)OC4)nc2N1 | 32 (≈ 61.1 µM)
38 | O=C1COc2ccc(CNC34CCC(CC5Cn6c(=O)ccc7ncc(F)c5c76)(CC3)OC4)nc2N1 (stereo in doubt; 9) | 16 (≈ 32.6 µM)
39 | O=C1COc2ccc(CNC34CCC(C[C@]5(O)Cn6c(=O)ccc7ncc(F)c5c76)(CC3)OC4)nc2N1 | 16 (≈ 31.5 µM)

Tested on: Escherichia coli
Assay: Antimicrobial activity against Escherichia coli ATCC 25922 by micro broth dilution or agar based method
Assay type: functional
Conditions: not given

Row | SMILES | MIC [µg/mL]
40 | O=C1COc2ccc(CNC34CCC(CC5Cn6c(=O)ccc7ncc(F)c5c76)(CC3)OC4)nc2N1 (racemic) | 1 (≈ 2.03 µM)

Same assay, conditions: Escherichia coli, ATCC 25922; read-out: MIC

Row | SMILES | MIC [µg/mL]
41 | CO[C@@]1(CC23CCC(NCc4ccc5c(n4)NC(=O)CO5)(CC2)CO3)Cn2c(=O)ccc3ncc(F)c1c32 | 32 (≈ 61.4 µM)
42 | O=C1COc2ccc(CNC34CCC(C[C@@]5(O)Cn6c(=O)ccc7ncc(Cl)c5c76)(CC3)OC4)nc2N1 | 32 (≈ 61.1 µM)
43 | O=C1COc2ccc(CNC34CCC(CC5Cn6c(=O)ccc7ncc(F)c5c76)(CC3)OC4)nc2N1 (stereo in doubt; 9) | 1 (≈ 2.03 µM)
44 | O=C1COc2ccc(CNC34CCC(C[C@]5(O)Cn6c(=O)ccc7ncc(F)c5c76)(CC3)OC4)nc2N1 | 4 (≈ 7.88 µM)

Tested on: Moraxella catarrhalis
Assay: Antimicrobial activity against Moraxella catarrhalis ATCC 25238 by micro broth dilution or agar based method
Assay type: functional
Conditions: not given

Row | SMILES | MIC [µg/mL]
45 | O=C1COc2ccc(CNC34CCC(C[C@]5(O)Cn6c(=O)ccc7ncc(F)c5c76)(CC3)OC4)nc2N1 | 0.25 (≈ 0.493 µM)

Tested on: Acinetobacter baumannii
Assay: Antimicrobial activity against Acinetobacter baumannii IID876 by micro broth dilution or agar based method
Assay type: functional
Conditions: not given

Row | SMILES | MIC [µg/mL]
46 | O=C1COc2ccc(CNC34CCC(CC5Cn6c(=O)ccc7ncc(F)c5c76)(CC3)OC4)nc2N1 (stereo in doubt; 9) | 0.5 (≈ 1.02 µM)

Same assay, conditions: Acinetobacter baumannii, IID876; read-out: MIC

Row | SMILES | MIC [µg/mL]
47 | CO[C@@]1(CC23CCC(NCc4ccc5c(n4)NC(=O)CO5)(CC2)CO3)Cn2c(=O)ccc3ncc(F)c1c32 | 16 (≈ 30.7 µM)
48 | O=C1COc2ccc(CNC34CCC(C[C@@]5(O)Cn6c(=O)ccc7ncc(Cl)c5c76)(CC3)OC4)nc2N1 | 32 (≈ 61.1 µM)
49 | O=C1COc2ccc(CNC34CCC(C[C@]5(O)Cn6c(=O)ccc7ncc(F)c5c76)(CC3)OC4)nc2N1 | 2 (≈ 3.94 µM)
